Experiments:
[1] = system: hippocampal neurogenesis (Dentate Gyrus); assay: in vivo neurogenesis assay (BrdU+ cells in dentate gyrus); design: species or system mice; conditions: living mice; vehicle (DMSO) 7.3
Text: The screen was simple in concept. With help from chemists in the Department of Biochemistry at UTSWMC, we selected 1,000 druglike chemicals from the 250,000 compounds in our high throughput screening center. The compounds were selected to preserve representative chemical diversity of the entire library. They were further selected to enhance the representation of chiral molecules, and to avoid untoward chemical properties such as reactive moieties. The 1,000 molecules were randomly pooled into groups of ten, and each pool was administered directly into the left ventricle of two adult mice. Intracranial delivery was facilitated by stereotactic positioning of a canula fed directly by an Alzet mini-pump containing the mixture of ten chemicals. The drug mixture was administered over a week-long period at concentrations anticipated to deliver mid-nanomolar levels of the ten test compounds. Daily injections of the thymidine analog, bromodeoxyuridine (BrdU), were coadministered in order to monitor the formation of new hippocampal nerve cells. Following compound administration, animals were sacrificed such that brain tissue could be recovered, sectioned and stained with antibodies to BrdU. […]

p70 (NAMPT) = target: T1, p70 (NAMPT) (Homo sapiens, UniProt P43490); assay: binding competition for photo-crosslinking of P7C3-S326 to p70 in H2122 cells; conditions: 0.3 μM P7C3-S326 plus 5 μM competitor, p70 band intensity, P7C3-S326 alone compared with plus competitor, vehicle 1.0
T1 construct: endogenous in cells; host or cells: H2122 lung cancer cells
Procedure: Cultured cells were co-exposed to P7C3-S326 (0.3 uM) and the individual P7C3 variants (5 uM), exposed to UV light, lysed, clicked to a fluorescent dye and run on SDS gels (FIG. 11).
P7C3-S326 was diluted to 0.3 μM in culture medium to treat H2122 cells. After incubation at 37° C. for 2 hours, H2122 cells were irradiated for 15 minutes under 306 nm ultraviolet light in a Stratalinker 2400 (Stratagene). Cells were then harvested by dissolving in 1% SDS lysis buffer 50 mM HEPES, pH 8.0, 2 mM MgCl2, 10 mM KCl, 1% SDS, 50 units/ml of Benzonase (Sigma), supplemented with Sigmafast protease inhibitor (Sigma).
The reaction was incubated at room temperature with constant agitation at 1,000 rpm on a thermomixer (Eppendorf) for 1 hour. Samples were then mixed with SDS sample loading buffer and loaded on an 8% SDS-PAGE gel, separated, and imaged using a Typhoon imager (filter settings: excitation 533 nm, emission 555 nm, and high sensitivity).
H2122 cells were incubated with the P7C3-S326 (0.3 μM) in the absence or presence of P7C3 analogs for 2 hours following by UV crosslinking. […] The samples were run on SDS-PAGE gels scanned using a Typhoon Imager. The p70 band intensity was analyzed and quantified by Image J, and the relative intensity in each assay was normalized to that of the DMSO control.

T1 sequence (P43490 whole entry): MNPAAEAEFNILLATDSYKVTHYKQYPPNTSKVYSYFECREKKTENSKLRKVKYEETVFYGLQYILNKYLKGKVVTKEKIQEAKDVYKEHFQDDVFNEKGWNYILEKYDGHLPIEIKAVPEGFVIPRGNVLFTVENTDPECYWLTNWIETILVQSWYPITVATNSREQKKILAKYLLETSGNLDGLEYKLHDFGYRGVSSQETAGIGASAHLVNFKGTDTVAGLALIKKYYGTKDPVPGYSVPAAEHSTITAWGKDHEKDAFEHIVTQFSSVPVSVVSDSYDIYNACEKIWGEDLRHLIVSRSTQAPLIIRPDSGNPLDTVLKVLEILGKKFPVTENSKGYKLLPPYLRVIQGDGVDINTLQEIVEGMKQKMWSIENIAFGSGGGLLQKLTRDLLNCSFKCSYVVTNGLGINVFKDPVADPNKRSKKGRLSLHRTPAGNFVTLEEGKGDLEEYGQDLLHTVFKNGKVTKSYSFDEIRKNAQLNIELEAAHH

Row | SMILES | Neurogenesis # BrdU+ Cells (X10E06)/mm3 Dentate Gyrus [1] | Binding competition (p70 (NAMPT))
1 | CN1CCN2c3ncccc3Cc3ccccc3C2C1 (centres unmarked) [S126, Remeron, reference compound] | 8.8 (X10E06)/mm3 | 1.3
2 | O=C1CC2(CCCC2)CC(=O)N1CCCCN1CCN(c2ncccn2)CC1 [S127, Buspar, reference compound] | 6.9 (X10E06)/mm3 | 1.2
3 | CN1CCc2c(c3cc(Br)ccc3n2CC(O)COc2ccccc2)C1 (centres unmarked) [S131] | 7.3 (X10E06)/mm3 | 3.5
4 | OC(CN1c2ccccc2CCc2ccccc21)Cn1ccc2ccccc21 (centres unmarked) [S132] | 11.4 (X10E06)/mm3 | 1.3
5 | OC(CN1c2ccccc2CCc2ccccc21)Cn1c2ccccc2c2ccccc21 (centres unmarked) [S133] | 10.1 (X10E06)/mm3 | 1.2
6 | OC(CSc1ccccc1)CN1c2ccccc2CCc2ccccc21 (centres unmarked) [S134] | 9.7 (X10E06)/mm3 | 1.9
7 | OC(COc1ccccc1)CN1c2ccccc2CCc2ccccc21 (centres unmarked) [S135] | 7.1 (X10E06)/mm3 | 3.4
8 | N#Cc1ccc(N(CC(O)COc2ccccc2)c2ccc(Br)cc2)nc1 (centres unmarked) [S136] | 6.5 (X10E06)/mm3 | 5.7
9 | O=c1ccccn1CC(O)Cn1c2ccc(Br)cc2c2cc(Br)ccc21 (centres unmarked) [S137] | 12.2 (X10E06)/mm3 | 4.5
10 | N#Cc1ccc2c(c1)c1ccccc1n2CC(O)COc1ccccc1 (centres unmarked) [S138] | 10.4 (X10E06)/mm3 | 6.5
11 | NCC(O)CN1c2ccccc2CCc2ccccc21 (centres unmarked) [S140] | 11.7 (X10E06)/mm3 | 1.2
12 | CC(C)(C)OC(=O)NCCCCCOc1ccc(S(=O)(=O)CC(O)Cn2c3ccc(Br)cc3c3cc(Br)ccc32)cc1 (centres unmarked) [S141] | 11.3 (X10E06)/mm3 | 2.7
13 | CNCC(O)CN1c2ccccc2CCc2ccccc21 (centres unmarked) [S143] | 7.3 (X10E06)/mm3 | 1.3
14 | CC(C)NCC(O)CN1c2ccccc2CCc2ccccc21 (centres unmarked) [S144] | 9.1 (X10E06)/mm3 | 1.4
15 | CC(C)(C)NCC(O)CN1c2ccccc2CCc2ccccc21 (centres unmarked) [S145] | 12.5 (X10E06)/mm3 | 2.6
16 | NC(=O)c1ccc2c(c1)c1cc(Br)ccc1n2CC(O)COc1ccccc1 (centres unmarked) [S146] | 14.5 (X10E06)/mm3 | 2.8
17 | OC(COc1ccccn1)Cn1c2ccc(Br)cc2c2cc(Br)ccc21 (centres unmarked) [S147] | 13.3 (X10E06)/mm3 | 3.4
18 | CN(C)CC(F)CN1c2ccccc2CCc2ccccc21 (centres unmarked) [S148, reference compound] | 11.3 (X10E06)/mm3 | 1.3
19 | CN(C)C(CF)CN1c2ccccc2CCc2ccccc21 (centres unmarked) [S149] | 11.6 (X10E06)/mm3 | 1.2
20 | OC(COc1ccccc1)Cn1c2ccccc2c2cc(Br)ccc21 (centres unmarked) [S150] | 8.4 (X10E06)/mm3 | 4.1
21 | CNCC(F)CN1c2ccccc2CCc2ccccc21 (centres unmarked) [S152] | 13.4 (X10E06)/mm3 | 1.6
22 | O=C(O)c1ccc2c(c1)c1cc(Br)ccc1n2CC(O)COc1ccccc1 (centres unmarked) [S153] | 10.7 (X10E06)/mm3 | 1.4
23 | O=S(=O)(CC(O)Cn1c2ccc(Br)cc2c2cc(Br)ccc21)c1ccc(OCCF)cc1 (centres unmarked) [S156] | 15.0 (X10E06)/mm3 | 1.2
24 | CC(C)(C)OC(=O)CCOCCOCCOCCOc1cccc(NCC(O)Cn2c3ccc(Br)cc3c3cc(Br)ccc32)c1 (centres unmarked) [S157] | 10.2 (X10E06)/mm3 | 1.5
25 | COc1cccc(NCC(O)CN2c3ccccc3CCc3ccccc32)c1 (centres unmarked) [S158] | 12.5 (X10E06)/mm3 | 1.3

From patent publication US9243281B2, “Neuroprotective chemicals and methods for identifying and using same” (Board of Regents of The University of Texas System, priority 2013, dated 2016)
